Tests used:
[1] = system: Streptococcus pneumoniae; assay: Antimicrobial activity against Streptococcus pneumoniae ATCC 6306 assessed as post antibiotic effect at 10 times MIC after 2 hr by plate counting method; assay type: functional
[2] = system: Staphylococcus aureus; assay: Antimicrobial activity against Staphylococcus aureus ATCC 29213 assessed as post antibiotic effect at 10 times MIC after 2 hr by plate counting method; assay type: functional

With CO/N=C(\C(=O)N[C@@H]1C(=O)N2C(C(=O)O)=C(CSc3nc(=O)c(O)nn3C)CS[C@H]12)c1csc(N)n1 [CEFTRIAXONE] the PAE [1] was 0.7 h and the PAE [2] was 2.3 h.
